In patent US6362369B1, “Phthalic acid diamide derivatives fluorine-containing aniline compounds as starting material, agricultural and horticultural insecticides, and a method for application of the insecticides” (Nihon Nohyaku Co., Ltd., priority 1997, dated 2002):

Assays:
[1] = system: diamondback moth (Plutella xylostella); test: Insecticidal effect on diamondback moth (Test Example 1); format: in vivo; settings: for Insecticidal effect on diamondback moth (Test Example 1), judged grade: mortality judged according to the criterion shown in Test Example 1; for Insecticidal effect, Test Example 1 / Insecticidal effect (Test Example 1), judged from mortality: diamondback moth; for Insecticidal effect (Test Example 1), judged from mortality: judged by the criterion of Test Example 1
Summary of the method: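 Chinese cabbage seedlings carrying eggs laid by released adult moths were immersed in treatment, air-dried and held at 25° C. Hatched insects were counted six days after immersion, and mortality was calculated and scored against a fixed criterion. Three replicate groups of 10 insects were used.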

[2] = system: rice leafroller (Cnaphalocrocis medinalis); test: Insecticidal effect on rice leafroller (Test Example 3); format: in vivo; settings: 500 ppm, 25° C., humidity 70%; for Insecticidal effect on rice leafroller (Test Example 3), judged grade / Insecticidal effect (Test Example 3), judged from mortality: rice lamina dip; for Insecticidal effect on rice leafroller (Test Example 3), judged grade: third-instar larvae; for Insecticidal effect on rice leafroller (Test Example 3), judged grade / Insecticidal effect, Test Example 3: four days after inoculation; for Insecticidal effect, Test Example 3: rice lamina immersed; for Insecticidal effect (Test Example 3), judged from mortality: 4 days after inoculation
Summary of the method: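 Groups of 10 third-instar larvae, in triplicate, are placed on air-dried lamina resting on wet filter paper. Incubation runs four days at 25° C with 70% humidity before survivors and dead are tallied.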

[3] = mortality judged by criterion of Test Example 1
[4] = rice leafroller third-instar larvae
[5] = third-instar larvae of rice leafroller
[6] = judged by the mortality criterion of Test Example 1

## CC(C)CNC(=O)c1ccccc1C(=O)Nc1ccc(C(F)(F)F)cc1 [compound 833]
[1]
  Insecticidal effect on diamondback moth (Test Example 1), judged grade: A (100)
[2]
  Insecticidal effect on rice leafroller (Test Example 3), judged grade: D (79-50)

## CC(C)NC(=O)c1c(C(=O)Nc2ccc([S+]([O-])C(F)(F)Br)cc2)cccc1[N+](=O)[O-] (stereo not drawn) [compound 1109]
[1]; [3]
  Insecticidal effect, Test Example 1: A (100)
[2]; [4]
  Insecticidal effect, Test Example 3: A (100)

## Cc1c(NC(=O)c2cccc([N+](=O)[O-])c2C(=O)NC(C)C)ccc(OC(F)F)c1Cl [compound 717]
[1]
  Insecticidal effect on diamondback moth (Test Example 1), judged grade: A (100)
[2]
  Insecticidal effect on rice leafroller (Test Example 3), judged grade: A (100)

## CC(C)NC(=O)c1ccccc1C(=O)Nc1ccc(SC(F)(F)Br)cc1 [compound 1106]
[1]; [3]
  Insecticidal effect, Test Example 1: A (100)
[2]; [4]
  Insecticidal effect, Test Example 3: A (100)

## CC(C)NC(=O)c1cccc(F)c1C(=O)Nc1ccc(C(F)(F)C(F)(F)F)cc1Cl [compound 1517]
[1]
  Insecticidal effect (Test Example 1), judged from mortality: A (100)
[2]; [5]
  Insecticidal effect (Test Example 3), judged from mortality: A (100)

## Cc1cc(OC(F)F)ccc1NC(=O)c1cccc([S+](C)[O-])c1C(=O)NC(C)C (stereo not drawn) [compound 791]
[1]
  Insecticidal effect on diamondback moth (Test Example 1), judged grade: A (100)
[2]
  Insecticidal effect on rice leafroller (Test Example 3), judged grade: A (100)

## CC(C)NC(=O)c1ccccc1C(=O)Nc1ccc(F)cc1 [compound 23]
[1]; [6]
  Insecticidal effect, Test Example 1: A (100)
[2]; [5]
  Insecticidal effect, Test Example 3: D (79-50)

## Cc1ccc(Cl)cc1NC(=O)c1cccc(OC(F)F)c1C(=O)NC(C)C [compound 773]
[1]
  Insecticidal effect on diamondback moth (Test Example 1), judged grade: A (100)
[2]
  Insecticidal effect on rice leafroller (Test Example 3), judged grade: A (100)

## Cc1cc(Cl)ccc1NC(=O)c1c(OC(F)F)cccc1C(=O)NC(C)C [compound 777]
[1]
  Insecticidal effect on diamondback moth (Test Example 1), judged grade: A (100)
[2]
  Insecticidal effect on rice leafroller (Test Example 3), judged grade: D (79-50)

## COCCNC(=O)c1c(C(=O)Nc2ccc(OC(F)F)cc2C)cccc1[N+](=O)[O-] [compound 872]
[1]
  Insecticidal effect on diamondback moth (Test Example 1), judged grade: A (100)
[2]
  Insecticidal effect on rice leafroller (Test Example 3), judged grade: C (89-80)

## CCN(CC)C(=O)c1c(C(=O)Nc2ccc(Cl)cc2C)cccc1[N+](=O)[O-] [compound 1135]
[1]; [3]
  Insecticidal effect, Test Example 1: A (100)
[2]; [4]
  Insecticidal effect, Test Example 3: A (100)

## Cc1cc(OC(F)F)ccc1NC(=O)c1c(Cl)ccc(Cl)c1C(=O)NC(C)C [compound 258]
[1]; [6]
  Insecticidal effect, Test Example 1: A (100)
[2]; [5]
  Insecticidal effect, Test Example 3: A (100)

## Cc1ccc(Cl)cc1NC(=O)c1cc(Cl)ccc1C(=O)NC(C)C [compound 191]
[1]; [6]
  Insecticidal effect, Test Example 1: A (100)
[2]; [5]
  Insecticidal effect, Test Example 3: A (100)

## CC(C)NC(=O)c1c(Br)cccc1C(=O)Nc1ccc2c(c1)OCO2 [compound 300]
[1]; [6]
  Insecticidal effect, Test Example 1: A (100)
[2]; [5]
  Insecticidal effect, Test Example 3: A (100)

## CC(C)NC(=O)c1ccccc1C(=O)Nc1ccc(S(=O)(=O)C(F)(F)F)cc1 [compound 1077]
[1]; [3]
  Insecticidal effect, Test Example 1: A (100)
[2]; [4]
  Insecticidal effect, Test Example 3: A (100)

## Cc1cc(OC(F)(F)F)ccc1NC(=O)c1cccc(I)c1C(=O)NC(C)c1ccccn1 (stereo not drawn) [compound 1775]
[1]
  Insecticidal effect (Test Example 1), judged from mortality: A (100)
[2]; [5]
  Insecticidal effect (Test Example 3), judged from mortality: A (100)

## CC(C)NC(=O)c1ccccc1C(=O)Nc1ccc(C(F)(F)F)cc1 [compound 25]
[1]; [6]
  Insecticidal effect, Test Example 1: A (100)
[2]; [5]
  Insecticidal effect, Test Example 3: A (100)

## Cc1c(Cl)cccc1NC(=O)c1c(I)cccc1C(=O)NC(C)C [compound 427]
[1]; [6]
  Insecticidal effect, Test Example 1: A (100)
[2]; [5]
  Insecticidal effect, Test Example 3: D (79-50)

## CC(C)NC(=O)c1cccc(I)c1C(=O)Nc1cccc(C(F)(F)F)c1 [compound 414]
[1]; [6]
  Insecticidal effect, Test Example 1: A (100)
[2]; [5]
  Insecticidal effect, Test Example 3: A (100)

## COc1ccc(NC(=O)c2c(I)cccc2C(=O)NC(C)C)c(C)c1 [compound 441]
[1]; [6]
  Insecticidal effect, Test Example 1: A (100)
[2]; [5]
  Insecticidal effect, Test Example 3: B (99-90)

## CCCNC(=O)c1cccc(I)c1C(=O)Nc1ccc(C(F)(C(F)(F)F)C(F)(F)F)cc1C [compound 1076]
[1]; [3]
  Insecticidal effect, Test Example 1: A (100)
[2]; [4]
  Insecticidal effect, Test Example 3: A (100)

## CC(C)NC(=O)c1c(F)cccc1C(=O)Nc1ccc(OC(F)(F)F)cc1 [compound 475]
[1]
  Insecticidal effect on diamondback moth (Test Example 1), judged grade: A (100)
[2]
  Insecticidal effect on rice leafroller (Test Example 3), judged grade: D (79-50)

## Cc1cc(Oc2ncc(C(F)(F)F)cc2Cl)ccc1NC(=O)c1cccc([N+](=O)[O-])c1C(=O)NC(C)C [compound 729]
[1]
  Insecticidal effect on diamondback moth (Test Example 1), judged grade: A (100)
[2]
  Insecticidal effect on rice leafroller (Test Example 3), judged grade: A (100)

## Cc1ccc(Cl)cc1NC(=O)c1c(Br)cccc1C(=O)NC(C)C [compound 307]
[1]; [6]
  Insecticidal effect, Test Example 1: A (100)
[2]; [5]
  Insecticidal effect, Test Example 3: D (79-50)

## Cc1cc(C(F)(F)C(F)(F)F)ccc1NC(=O)c1c(Cl)cccc1C(=O)NC(C)(C)CO [compound 1415]
[1]; [3]
  Insecticidal effect, Test Example 1: A (100)
[2]; [4]
  Insecticidal effect, Test Example 3: A (100)

## CC(C)NC(=O)c1cccc(I)c1C(=O)Nc1ccc(OC(F)F)c(F)c1 [compound 448]
[1]
  Insecticidal effect on diamondback moth (Test Example 1), judged grade: A (100)
[2]
  Insecticidal effect on rice leafroller (Test Example 3), judged grade: A (100)

## CC(C)NC(=O)c1c(I)cccc1C(=O)Nc1ccc2c(c1Cl)OC(F)(F)C(F)(F)O2 [compound 1626]
[1]
  Insecticidal effect (Test Example 1), judged from mortality: A (100)
[2]; [5]
  Insecticidal effect (Test Example 3), judged from mortality: A (100)

## Cc1cc(OC(F)F)ccc1NC(=O)c1c(Br)ccc(Br)c1C(=O)NC(C)C [compound 340]
[1]; [6]
  Insecticidal effect, Test Example 1: A (100)
[2]; [5]
  Insecticidal effect, Test Example 3: A (100)

## CCCNC(=O)c1c(C(=O)Nc2cc(Cl)ccc2C)cccc1[N+](=O)[O-] [compound 18]
[1]; [6]
  Insecticidal effect, Test Example 1: D (79-50)
[2]; [5]
  Insecticidal effect, Test Example 3: A (100)

## Cc1cc(OC(F)F)ccc1NC(=O)c1cccc([N+](=O)[O-])c1C(=O)NC(C)c1ccccc1 (stereo not drawn) [compound 879]
[1]
  Insecticidal effect on diamondback moth (Test Example 1), judged grade: A (100)
[2]
  Insecticidal effect on rice leafroller (Test Example 3), judged grade: A (100)

## CC(C)NC(=O)c1cccc(I)c1C(=O)Nc1ccc(SCC(F)(F)F)cc1 [compound 420]
[1]; [6]
  Insecticidal effect, Test Example 1: A (100)
[2]; [5]
  Insecticidal effect, Test Example 3: D (79-50)

## CCCCc1cc(I)ccc1NC(=O)c1cccc(I)c1C(=O)NC(C)C [compound 966]
[1]; [3]
  Insecticidal effect, Test Example 1: A (100)
[2]; [4]
  Insecticidal effect, Test Example 3: B (99-90)

## CC(C)NC(=O)c1c(I)cccc1C(=O)Nc1ccc(C(F)(F)C(F)(F)F)cc1C(F)(F)C(F)(F)F [compound 1410]
[1]; [3]
  Insecticidal effect, Test Example 1: A (100)
[2]; [4]
  Insecticidal effect, Test Example 3: A (100)

## CCN(CC)C(=O)c1c(I)cccc1C(=O)Nc1ccc(OC(F)F)cc1C [compound 1555]
[1]
  Insecticidal effect (Test Example 1), judged from mortality: A (100)
[2]; [5]
  Insecticidal effect (Test Example 3), judged from mortality: A (100)

## CC(C)NC(=O)c1cccc(I)c1C(=O)Nc1ccc(OC(F)(F)F)cc1Br [compound 466]
[1]
  Insecticidal effect on diamondback moth (Test Example 1), judged grade: A (100)
[2]
  Insecticidal effect on rice leafroller (Test Example 3), judged grade: A (100)

## CCc1ccc(Cl)c(CC)c1NC(=O)c1cccc(I)c1C(=O)NC(C)C [compound 925]
[1]
  Insecticidal effect on diamondback moth (Test Example 1), judged grade: A (100)
[2]
  Insecticidal effect on rice leafroller (Test Example 3), judged grade: A (100)

## CCCN(CCC)C(=O)c1c(I)cccc1C(=O)Nc1ccc(OC(F)F)cc1C [compound 1157]
[1]; [3]
  Insecticidal effect, Test Example 1: A (100)
[2]; [4]
  Insecticidal effect, Test Example 3: A (100)

## Cc1ccc(F)cc1NC(=O)c1ccccc1C(=O)NC(C)C [compound 53]
[1]; [6]
  Insecticidal effect, Test Example 1: A (100)
[2]; [5]
  Insecticidal effect, Test Example 3: A (100)

## CC(C)NC(=O)c1c(I)cccc1C(=O)Nc1c(Cl)ccc2c1OC(F)(F)O2 [compound 1743]
[1]
  Insecticidal effect (Test Example 1), judged from mortality: A (100)
[2]; [5]
  Insecticidal effect (Test Example 3), judged from mortality: A (100)

## CC(C)NC(=O)c1c(C(=O)Nc2ccc(F)c(Cl)c2)cccc1[N+](=O)[O-] [compound 643]
[1]
  Insecticidal effect on diamondback moth (Test Example 1), judged grade: A (100)
[2]
  Insecticidal effect on rice leafroller (Test Example 3), judged grade: A (100)

## CC(C)NC(=O)c1ccccc1C(=O)Nc1ccc([S+]([O-])C(F)(F)Br)cc1 (stereo not drawn) [compound 1107]
[1]; [3]
  Insecticidal effect, Test Example 1: A (100)
[2]; [4]
  Insecticidal effect, Test Example 3: A (100)

## Cc1cc(OC(F)(F)F)ccc1NC(=O)c1c(Br)cccc1C(=O)NC(C)C [compound 326]
[1]; [6]
  Insecticidal effect, Test Example 1: A (100)
[2]; [5]
  Insecticidal effect, Test Example 3: A (100)

## Cc1cc(OC(F)F)ccc1NC(=O)c1cccc([N+](=O)[O-])c1C(=O)NC1CC1 [compound 852]
[1]
  Insecticidal effect on diamondback moth (Test Example 1), judged grade: A (100)
[2]
  Insecticidal effect on rice leafroller (Test Example 3), judged grade: D (79-50)

## Cc1cc(C(F)(F)C(F)(F)F)ccc1NC(=O)c1ccc(Br)c(Br)c1C(=O)NC(C)C [compound 1266]
[1]; [3]
  Insecticidal effect, Test Example 1: A (100)
[2]; [4]
  Insecticidal effect, Test Example 3: A (100)

## Cc1cc(C(F)(F)C(F)(F)F)ccc1NC(=O)c1cccc(Cl)c1C(=O)Nc1ccco1 [compound 1390]
[1]; [3]
  Insecticidal effect, Test Example 1: A (100)
[2]; [4]
  Insecticidal effect, Test Example 3: A (100)

## COc1cccc(C(=O)NC(C)C)c1C(=O)Nc1ccc(Br)cc1C [compound 771]
[1]
  Insecticidal effect on diamondback moth (Test Example 1), judged grade: A (100)
[2]
  Insecticidal effect on rice leafroller (Test Example 3), judged grade: C (89-80)

## Cc1cc(Cl)ccc1NC(=O)c1c(F)cccc1C(=O)NC(C)C [compound 545]
[1]
  Insecticidal effect on diamondback moth (Test Example 1), judged grade: A (100)
[2]
  Insecticidal effect on rice leafroller (Test Example 3), judged grade: A (100)

## Cc1ccc(Cl)cc1NC(=O)c1cc2ccccc2cc1C(=O)NC(C)C [compound 822]
[1]
  Insecticidal effect on diamondback moth (Test Example 1), judged grade: D (79-50)
[2]
  Insecticidal effect on rice leafroller (Test Example 3), judged grade: D (79-50)
